Measured values published in patent US20240066119A1, “METHODS AND PLATFORMS FOR ELICITING AN IMMUNE RESPONSE IN THE TREATMENT OF CANCER AND COMPOSITIONS AND VACCINES RELATING THERETO” (University of Maryland, College Park, priority 2021, published 2024).

Tested on: lymphocyte egress from lymphoid tissues
Assay: Inhibition of lymphocyte trafficking with FTY720
Format: in vivo, C57BL6 mice
Settings: FTY720 1 mg/kg daily i.p., day 7 after vaccination
Experimental: Investigation of Adjuvant-Involvement on Split LN Treatments and Effect of Inhibition of Lymphocyte Trafficking on Antigen Specificity. To determine the influence of adjuvant (PolyIC) delivery in the Split LN treatment group on antigen-specificity as quantified by SIINFEKL tetramer, mice were treated as described above for Split LN treatment with soluble OVA and either PolyIC MPs or with PBS. Antigen-specific CD8^+ T cells in the blood and LNs were quantified using SIINFEKL tetramer as described above. Antigen-specific T cells were reported as a percentage of Live, CD8^+ cells. In studies to determine the effect of lymphocyte trafficking on local and systemic antigen-specificity, FTY720 (Sigma) was administered daily at 1 mg/kg via intraperitoneal injection one day prior to vaccination until the end of the experiment (7 days after vaccination). Following vaccination, antigen-specific CD8^+ T cells in the blood and LNs were quantified using SIINFEKL tetramer as described above and reported as a percentage of Live, CD8^+ cells and an overall number of cells from an identical acquisition volume (80 μL).

SMILES: CCCCCCCCc1ccc(CCC(N)(CO)CO)cc1 [FTY720]
- number of antigen-specific T cells in blood: greatly diminished
- percentage of antigen-specific T cells in blood: did not significantly change
